Measurements reported in patent US20130084379A1, “ACTIVE INGREDIENT DELIVERY SYSTEM” (FIRMENICH SA, priority 2010, published 2013).

Experiment: Dissolution kinetics in a model beverage base (Distek 2100B USP 2 dissolution system, UV/VIS probe at 324 nm)
Format: physicochemical
Settings: 200 rpm, 20 ppm nominal
Experimental: The dissolution kinetics of the powder prepared in example 1 was compared to that of Compound 1 alone. Evaluation was performed under standard conditions using a Distek 2100B USP 2 dissolution system and a model beverage base.
The model beverage was prepared by stirring together 35 g sucrose, 1.5 g citric acid and 965.3 g deionised water until the sucrose was fully dissolved. Comparative sample 1 was prepared by adding 20 mg of Compound 1 (unencapsulated) to 1 litre of the beverage base to provide 20 ppm of compound 1. Sample 2 was prepared by adding 200 mg of the powder prepared in example 1 to 1 litre of the beverage to provide, once dissolved, a solution containing 20 ppm of compound 1. The samples were each stirred at 200 rpm and the concentration of compound 1 in solution was monitored as a function of time using a UV/VIS spectrometer probe (measuring absorbance at 324 nm). The results are given in the following table (where the values represent the amount (ppm) of Compound 1 in solution: […]

Question: For `CCCNC(=O)C(C)(C)COc1cccc2c1C(N)=NS(=O)(=O)N2` [Sample 1], which “time at which 50% dissolution of Compound 1 was achieved” value is on record?
Answer: The value was “approximately 3600 seconds”.

Question: And the “Concentration in Solution (amount of Compound 1 in solution)” value (“Concentration in Solution” below) (time 0 seconds)?
Answer: Its value is 0 ppm.

Question: And the “Concentration in Solution” value (time 10 seconds)?
Answer: The value was 0.1 ppm.

Question: And the “Concentration in Solution” value (time 30 seconds)?
Answer: The value was 0.2 ppm.

Question: What about the “Concentration in Solution” value (time 60 seconds) of the same compound?
Answer: The value was 0.3 ppm.

Question: What about the “Concentration in Solution” value (time 300 seconds) of the same compound?
Answer: The value was 0.6 ppm.

Question: What about the “Concentration in Solution” value (time 600 seconds) of the same compound?
Answer: The value was 1.4 ppm.

Question: And the “Concentration in Solution” value (time 3600 seconds)?
Answer: The value was 10.2 ppm.
